Experimental data: ChEMBL document CHEMBL1201862, “PubChem BioAssay data set” (2004)
One block for each compound: values may come before it. Calls of active or inactive are those of the source.

Legend:
[1] = biological target: T1, Corticotropin-releasing factor receptor 2/Corticotropin-releasing factor-binding protein (Homo sapiens, UniProt P24387+Q13324); assay: activators of CRF receptor 2 with binding protein – uHTS hits, confirmation (AID 602473); type: functional; settings: read-out: EC50_Mean
T1 sequence (Q13324 whole entry): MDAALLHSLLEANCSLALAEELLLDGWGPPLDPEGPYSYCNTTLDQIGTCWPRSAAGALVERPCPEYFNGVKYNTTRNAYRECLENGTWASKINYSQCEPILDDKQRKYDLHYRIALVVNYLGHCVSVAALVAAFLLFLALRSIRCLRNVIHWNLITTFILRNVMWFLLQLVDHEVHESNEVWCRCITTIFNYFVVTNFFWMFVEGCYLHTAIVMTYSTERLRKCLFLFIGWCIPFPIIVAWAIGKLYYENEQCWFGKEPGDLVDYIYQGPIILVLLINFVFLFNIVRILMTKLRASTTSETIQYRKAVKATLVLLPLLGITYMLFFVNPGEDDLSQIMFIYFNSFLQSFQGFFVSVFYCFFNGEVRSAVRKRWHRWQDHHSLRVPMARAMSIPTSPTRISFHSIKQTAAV
T1 sequence (P24387 whole entry): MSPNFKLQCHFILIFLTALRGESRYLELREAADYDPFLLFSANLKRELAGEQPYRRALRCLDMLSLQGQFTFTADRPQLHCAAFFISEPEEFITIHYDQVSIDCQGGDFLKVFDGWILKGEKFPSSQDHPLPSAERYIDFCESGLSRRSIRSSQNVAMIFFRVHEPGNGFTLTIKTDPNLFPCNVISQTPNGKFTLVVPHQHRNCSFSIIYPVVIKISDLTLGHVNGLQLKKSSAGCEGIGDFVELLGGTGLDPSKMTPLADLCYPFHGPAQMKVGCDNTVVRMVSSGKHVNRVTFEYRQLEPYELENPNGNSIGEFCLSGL

[2] = biological target: T2, Heat shock factor protein 1 (Mus musculus, UniProt P38532); assay: decrease of HSF1-responsive luciferase luminescence – cell-based, NIH3T3, dose retest, confirmation (AID 2382); type: functional;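 note: NIH3T3 fibroblasts with HSF1-driven luciferase reporter stressed by proteasome inhibitor MG132; luminescence from HSF1-driven luciferase expression after 8 hours of MG132 stress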
T2 sequence (P38532 whole entry): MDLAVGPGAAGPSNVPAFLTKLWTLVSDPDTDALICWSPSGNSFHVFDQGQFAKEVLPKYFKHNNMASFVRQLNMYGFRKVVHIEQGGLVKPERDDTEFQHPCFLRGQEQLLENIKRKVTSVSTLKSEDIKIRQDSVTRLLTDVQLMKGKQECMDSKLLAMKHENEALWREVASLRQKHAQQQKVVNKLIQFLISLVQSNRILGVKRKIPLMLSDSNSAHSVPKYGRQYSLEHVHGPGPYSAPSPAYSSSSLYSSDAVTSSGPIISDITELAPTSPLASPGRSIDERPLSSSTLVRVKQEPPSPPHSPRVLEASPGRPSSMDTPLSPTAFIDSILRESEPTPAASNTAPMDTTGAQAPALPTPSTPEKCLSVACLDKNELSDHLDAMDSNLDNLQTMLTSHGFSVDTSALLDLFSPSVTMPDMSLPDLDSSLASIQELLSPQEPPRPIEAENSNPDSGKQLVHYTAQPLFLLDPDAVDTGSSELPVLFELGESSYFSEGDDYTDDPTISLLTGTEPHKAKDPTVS

[3] = blockers of CRF-binding protein–CRF-R2 complex – cell-based, uHTS hits, 384-well, dose response (AID 651639); type: functional, Homo sapiens; settings: read-out: IC50_Mean
[4] = biological target: T1, Corticotropin-releasing factor receptor 2/Corticotropin-releasing factor-binding protein; assay: Dose Response confirmation of uHTS hits for small molecule antagonists of the CRF-binding protein and CRF-R2 receptor complex.; type: functional; settings: read-out: IC50_Mean
[5] = inhibition of ARNT PAS-B/TACC3 complex formation – biochemical, AlphaScreen, cherry-picked samples, confirmation (AID 651703); type: functional, Homo sapiens;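 note: His-tagged ARNT PAS-B domain paired with GST-TACC3 E629A dimer coactivator fragment; potency of inhibitors that break up the complex and lower AlphaScreen signal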
[6] = biological target: T3, 1-phosphatidylinositol 4,5-bisphosphate phosphodiesterase gamma-1 (Homo sapiens, UniProt P19174); assay: Counterscreen for inhibitors of phospholipase C isozymes (PLC-B3): Fluorescence-based biochemical high throughput dose response assay to identify inhibitors of phospholipase C isozymes (PLC-gamma1).
T3 sequence (P19174 whole entry): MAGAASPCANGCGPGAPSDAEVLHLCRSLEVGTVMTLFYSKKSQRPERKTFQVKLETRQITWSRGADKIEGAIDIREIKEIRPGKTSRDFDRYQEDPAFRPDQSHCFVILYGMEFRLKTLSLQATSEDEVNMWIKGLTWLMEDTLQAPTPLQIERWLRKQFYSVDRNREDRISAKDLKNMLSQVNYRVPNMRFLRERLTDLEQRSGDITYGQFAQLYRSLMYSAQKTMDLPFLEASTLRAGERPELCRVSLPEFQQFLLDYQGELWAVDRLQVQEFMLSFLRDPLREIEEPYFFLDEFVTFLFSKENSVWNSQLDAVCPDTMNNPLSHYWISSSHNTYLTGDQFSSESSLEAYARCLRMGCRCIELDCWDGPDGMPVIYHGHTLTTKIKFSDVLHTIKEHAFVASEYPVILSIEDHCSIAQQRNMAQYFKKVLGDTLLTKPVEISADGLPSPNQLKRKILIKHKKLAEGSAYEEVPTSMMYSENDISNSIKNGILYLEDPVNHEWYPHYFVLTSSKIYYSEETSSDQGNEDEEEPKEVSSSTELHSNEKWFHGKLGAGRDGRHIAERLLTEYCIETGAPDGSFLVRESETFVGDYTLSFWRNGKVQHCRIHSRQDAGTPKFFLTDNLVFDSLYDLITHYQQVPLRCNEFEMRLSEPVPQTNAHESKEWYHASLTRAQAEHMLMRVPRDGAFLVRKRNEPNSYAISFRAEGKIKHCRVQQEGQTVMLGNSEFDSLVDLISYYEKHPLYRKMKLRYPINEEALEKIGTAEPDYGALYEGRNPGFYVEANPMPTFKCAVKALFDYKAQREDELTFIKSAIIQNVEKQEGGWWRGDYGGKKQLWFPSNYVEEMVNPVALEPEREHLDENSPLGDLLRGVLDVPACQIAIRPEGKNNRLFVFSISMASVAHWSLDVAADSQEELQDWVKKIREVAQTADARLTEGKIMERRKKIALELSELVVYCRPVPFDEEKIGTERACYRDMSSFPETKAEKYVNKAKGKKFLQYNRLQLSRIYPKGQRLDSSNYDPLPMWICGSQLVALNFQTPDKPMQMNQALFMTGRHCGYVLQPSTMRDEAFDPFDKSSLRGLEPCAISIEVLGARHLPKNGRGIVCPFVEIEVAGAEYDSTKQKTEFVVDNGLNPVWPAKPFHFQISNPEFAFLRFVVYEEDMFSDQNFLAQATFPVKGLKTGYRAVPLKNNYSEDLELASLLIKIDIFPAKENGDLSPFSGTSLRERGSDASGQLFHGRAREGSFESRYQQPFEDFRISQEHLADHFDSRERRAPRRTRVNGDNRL

[7] = biological target: T4, 1-phosphatidylinositol 4,5-bisphosphate phosphodiesterase beta-3 (Homo sapiens, UniProt Q01970); assay: Fluorescence-based biochemical high throughput dose response assay to identify inhibitors of phospholipase C isozymes (PLC-B3).
T4 sequence (Q01970 whole entry): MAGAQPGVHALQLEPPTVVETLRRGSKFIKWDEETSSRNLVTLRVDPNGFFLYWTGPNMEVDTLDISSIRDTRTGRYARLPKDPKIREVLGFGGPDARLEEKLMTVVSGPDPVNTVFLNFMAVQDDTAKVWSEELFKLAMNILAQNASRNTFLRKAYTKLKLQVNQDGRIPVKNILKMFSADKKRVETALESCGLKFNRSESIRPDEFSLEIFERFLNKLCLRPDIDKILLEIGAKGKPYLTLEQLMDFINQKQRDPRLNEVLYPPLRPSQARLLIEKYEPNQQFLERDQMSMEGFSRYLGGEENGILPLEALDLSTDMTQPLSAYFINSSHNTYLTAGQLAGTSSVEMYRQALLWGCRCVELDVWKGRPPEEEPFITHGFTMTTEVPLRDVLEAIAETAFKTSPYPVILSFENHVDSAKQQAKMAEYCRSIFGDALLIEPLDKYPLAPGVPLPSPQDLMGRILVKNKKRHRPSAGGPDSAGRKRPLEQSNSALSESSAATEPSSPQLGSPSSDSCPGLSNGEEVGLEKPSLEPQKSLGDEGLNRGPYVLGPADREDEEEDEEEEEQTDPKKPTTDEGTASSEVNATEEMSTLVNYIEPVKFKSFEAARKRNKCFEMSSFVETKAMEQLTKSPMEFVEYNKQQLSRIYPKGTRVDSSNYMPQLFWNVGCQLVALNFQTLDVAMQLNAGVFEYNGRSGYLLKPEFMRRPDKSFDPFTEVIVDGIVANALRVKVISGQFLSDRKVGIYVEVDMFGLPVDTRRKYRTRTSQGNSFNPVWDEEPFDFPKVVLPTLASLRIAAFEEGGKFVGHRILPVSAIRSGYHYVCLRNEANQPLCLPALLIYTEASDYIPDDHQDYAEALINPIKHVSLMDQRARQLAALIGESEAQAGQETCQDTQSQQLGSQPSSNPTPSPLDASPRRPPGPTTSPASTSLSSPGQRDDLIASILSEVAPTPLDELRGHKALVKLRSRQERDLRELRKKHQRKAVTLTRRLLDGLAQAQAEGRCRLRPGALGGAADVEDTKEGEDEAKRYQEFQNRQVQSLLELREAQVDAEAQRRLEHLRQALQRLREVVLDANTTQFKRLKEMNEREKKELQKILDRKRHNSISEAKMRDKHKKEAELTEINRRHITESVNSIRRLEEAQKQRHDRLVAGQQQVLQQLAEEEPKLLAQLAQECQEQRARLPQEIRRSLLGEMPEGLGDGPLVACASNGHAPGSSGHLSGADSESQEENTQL

[8] = biological target: Hepatocyte nuclear factor 4-alpha (Homo sapiens, UniProt P41235); type: functional, cell-based;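 note: biochemical luminescence-based dose-response counterscreen measuring inhibition of HNF4 dimerization, run alongside a screen for blockers of ABHD5–perilipin-5 interaction; split luciferase complementation of HNF4 fusion proteins in cell lysate measuring dimerization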
Sequence of Hepatocyte nuclear factor 4-alpha (P41235 whole entry, the tested form may be a part): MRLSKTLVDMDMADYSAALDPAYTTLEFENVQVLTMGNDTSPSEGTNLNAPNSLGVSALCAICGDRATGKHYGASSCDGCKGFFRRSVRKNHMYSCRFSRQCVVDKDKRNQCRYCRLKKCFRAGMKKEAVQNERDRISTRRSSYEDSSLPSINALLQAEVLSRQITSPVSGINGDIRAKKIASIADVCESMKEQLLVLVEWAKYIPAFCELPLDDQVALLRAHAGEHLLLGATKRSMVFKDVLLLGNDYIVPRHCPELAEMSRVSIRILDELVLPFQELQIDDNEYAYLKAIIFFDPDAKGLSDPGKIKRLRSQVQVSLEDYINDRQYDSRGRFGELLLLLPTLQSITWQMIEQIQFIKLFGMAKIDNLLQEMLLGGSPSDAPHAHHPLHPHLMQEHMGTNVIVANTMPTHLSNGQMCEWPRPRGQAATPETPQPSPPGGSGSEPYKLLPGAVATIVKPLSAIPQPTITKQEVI

Protein Wnt-3a = Protein Wnt-3a (Mus musculus, UniProt P27467); assay: antagonism of Wnt3a pathway luciferase reporter – Wnt-LIGHT cells, luminescence, selectivity assay for Gli-SUFU antagonist project, dose response (AID 651570); type: functional; settings: read-out: IC50_Mean;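 note: Wnt-LIGHT reporter cells stimulated with conditioned medium from Wnt3a-producing cells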
Sequence of Protein Wnt-3a (P27467 whole entry, the tested form may be a part): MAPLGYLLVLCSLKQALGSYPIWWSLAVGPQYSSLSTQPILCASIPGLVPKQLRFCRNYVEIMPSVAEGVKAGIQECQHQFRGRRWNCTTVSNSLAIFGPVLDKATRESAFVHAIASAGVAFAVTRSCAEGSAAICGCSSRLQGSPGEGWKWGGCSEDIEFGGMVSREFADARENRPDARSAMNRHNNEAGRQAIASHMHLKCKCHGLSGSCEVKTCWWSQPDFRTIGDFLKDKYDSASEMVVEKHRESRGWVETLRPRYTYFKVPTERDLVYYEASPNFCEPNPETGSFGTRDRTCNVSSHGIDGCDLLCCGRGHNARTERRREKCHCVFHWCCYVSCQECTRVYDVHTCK

[9] = biological target: Photoreceptor-specific nuclear receptor (Homo sapiens, UniProt Q9Y5X4); type: functional, cell-based;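 note: CHO-S cells with Gal4-NCOR and VP16-NR2E3 two-hybrid luciferase reporter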
Sequence of Photoreceptor-specific nuclear receptor (Q9Y5X4 whole entry, the tested form may be a part): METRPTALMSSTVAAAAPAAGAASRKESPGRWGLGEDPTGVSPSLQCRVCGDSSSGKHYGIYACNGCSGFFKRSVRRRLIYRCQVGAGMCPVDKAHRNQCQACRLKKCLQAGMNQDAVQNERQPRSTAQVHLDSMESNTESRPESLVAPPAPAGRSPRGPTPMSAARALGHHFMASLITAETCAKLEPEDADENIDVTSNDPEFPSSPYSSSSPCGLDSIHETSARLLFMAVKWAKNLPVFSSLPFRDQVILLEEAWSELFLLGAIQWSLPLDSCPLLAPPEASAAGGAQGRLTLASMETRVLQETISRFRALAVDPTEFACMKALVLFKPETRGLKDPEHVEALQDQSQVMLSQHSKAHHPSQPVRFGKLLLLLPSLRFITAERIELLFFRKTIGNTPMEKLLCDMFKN

[10] = biological target: T5, ATP-dependent translocase ABCB1 (Homo sapiens, UniProt P08183); assay: inhibition of BCRP-mediated JC-1 efflux – Ig-MXP3 cells, flow cytometry, set 2, dose response (AID 504566); type: functional; settings: read-out: EC50_MICROM_;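 note: flow cytometry median green fluorescence of retained JC-1 dye; potency of efflux pump inhibition measured as rising substrate retention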
T5 sequence (P08183 whole entry): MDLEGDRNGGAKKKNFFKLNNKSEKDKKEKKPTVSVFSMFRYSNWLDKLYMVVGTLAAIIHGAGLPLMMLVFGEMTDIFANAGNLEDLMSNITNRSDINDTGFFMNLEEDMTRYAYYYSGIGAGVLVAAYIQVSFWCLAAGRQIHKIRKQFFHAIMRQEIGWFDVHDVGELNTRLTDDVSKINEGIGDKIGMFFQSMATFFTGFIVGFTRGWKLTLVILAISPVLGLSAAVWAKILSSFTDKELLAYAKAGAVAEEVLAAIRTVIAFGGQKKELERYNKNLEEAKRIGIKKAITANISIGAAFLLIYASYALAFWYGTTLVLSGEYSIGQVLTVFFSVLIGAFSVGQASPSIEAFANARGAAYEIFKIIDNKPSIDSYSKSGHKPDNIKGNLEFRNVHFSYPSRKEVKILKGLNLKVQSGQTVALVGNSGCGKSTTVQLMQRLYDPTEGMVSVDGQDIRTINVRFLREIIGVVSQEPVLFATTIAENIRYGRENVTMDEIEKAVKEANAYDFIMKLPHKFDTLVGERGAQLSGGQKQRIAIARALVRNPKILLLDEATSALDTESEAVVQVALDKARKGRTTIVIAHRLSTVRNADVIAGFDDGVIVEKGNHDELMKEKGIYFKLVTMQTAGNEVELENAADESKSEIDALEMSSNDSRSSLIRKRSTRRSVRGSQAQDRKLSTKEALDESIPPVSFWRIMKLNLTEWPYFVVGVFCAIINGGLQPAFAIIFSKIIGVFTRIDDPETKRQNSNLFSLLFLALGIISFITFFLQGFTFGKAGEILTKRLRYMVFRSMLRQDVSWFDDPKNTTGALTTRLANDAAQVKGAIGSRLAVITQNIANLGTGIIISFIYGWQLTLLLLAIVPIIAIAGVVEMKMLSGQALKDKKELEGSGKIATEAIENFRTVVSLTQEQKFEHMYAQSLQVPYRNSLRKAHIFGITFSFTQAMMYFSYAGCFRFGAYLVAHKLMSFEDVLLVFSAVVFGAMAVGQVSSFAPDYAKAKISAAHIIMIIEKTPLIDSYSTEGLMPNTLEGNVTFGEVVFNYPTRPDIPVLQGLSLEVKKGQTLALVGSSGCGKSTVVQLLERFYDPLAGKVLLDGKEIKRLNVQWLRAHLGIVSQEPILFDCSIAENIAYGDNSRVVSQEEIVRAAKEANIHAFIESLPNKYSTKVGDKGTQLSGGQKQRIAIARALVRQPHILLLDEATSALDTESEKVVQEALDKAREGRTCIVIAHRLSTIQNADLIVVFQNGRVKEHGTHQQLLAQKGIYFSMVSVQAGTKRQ

[11] = biological target: T5, ATP-dependent translocase ABCB1; assay: P-gp JC-1 efflux blockade concentration-response – Jurkat-DNR cells, flow cytometry, set 2, dose response (AID 504569); type: functional; settings: read-out: EC50_MICROM_;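 note: potency of pump inhibitors that raise cellular JC-1 green fluorescence up to the nicardipine level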

IC50 [8]: 2.39 µM (active)
Compound: N#Cc1ccc(C(C(=O)NC2CCCCC2)n2c(=O)c(-c3ccco3)nc3ccccc32)cc1 (configuration not stated)

IC50 [9]: 3.65 µM (active)
Compound: CC(C(=O)N1CCN(c2ccc(Cl)cc2)CC1)c1ncc(C(F)(F)F)cc1Cl (configuration not stated)

EC50 [10]: 17.7 µM (inactive) | EC50 [11]: 28.1 µM (inactive)
Compound: Cc1cc(N2CCN(C(=O)c3ccco3)CC2)n2nc(C)c(-c3ccc(Cl)cc3)c2n1

Second part, the compound before the results:

Compound: COc1cccc2cc(-c3nnc(-c4ccccc4)o3)c(=O)oc12
EC50 [1]: > 53 µM (inactive) | EC50 [2]: 70.4 µM (active) | IC50 [3]: 0.675 µM (active) | IC50 [4]: < 0.368 µM (active)

Compound: CCOc1ccccc1Nc1nc(N)nc(CN(C)C2CCCCC2)n1
AC50 [5]: 80.6 µM (active) | IC50 [6]: > 123 µM (inactive) | IC50 [7]: > 123 µM (inactive)

Compound: CCC(C)CCN1C(N(C)C)=NC[C@@H]1CC(C)C (some centres not stated)
IC50 (Protein Wnt-3a): 6.72 µM (active)
